In US20100160369A1, “S1P1 Agonists and Methods of Making And Using” (EXELIXIS, INC., priority 2008, published 2010):
Like-named read-outs stand apart in the source and are kept apart here.

Target: S1P1 (Homo sapiens, UniProt P21453)
Experiment: CNG cAMP Assay (Assay 1)
Format: cell-based
Parameters: host or cells: HEK293 cells expressing the CNG channel
Description: Frozen HEK293 cells expressing the CNG channel and S1P1 (BD Biosciences, San Jose, Calif.) were thawed and plated into the wells of a black, clear bottom, 384-well CellBind plate (Corning, Corning, N.Y.) at 14,000 cells per well. HEK293 cells expressing the CNG channel and CB1 (BD Biosciences) were cultured and plated under the same conditions. The cells were incubated for 16 h at 37° C. in complete DMEM medium (Invitrogen Carlsbad, Calif.) containing 10% FBS (HyClone Logan, Utah), 250 μg/mL geneticin (Invitrogen), and 1 μg/mL puromycin (Sigma-Aldrich, St. Louis, Mo.). A membrane potential dye (BD Biosciences) was added and the plates were incubated for 2-2.5 h at room temperature.
Test compounds were tested at maximum concentrations of 10 μM. Compounds were diluted in DMSO (10 concentration points, 3-fold each) and added to the assay plate at final DMSO concentrations of 1.8%. For each compound, there were duplicate assay plates and each assay plate had duplicate wells per concentration point. Test compounds were added to the cells in a DPBS solution containing 25 μM Ro 20-1724 (Sigma-Aldrich), 500 nM of the A2b receptor agonist NECA (Sigma-Aldrich) and 10 nM (EC95) of S1P (Avanti Alabaster, Ala.) and incubated for 90 min. The assay plate was read before compound addition (T0) and after the 90 min incubation (T90) using an EnVision plate reader (PerkinElmer, Waltham, Mass.) at an excitation wavelength of 350 nm and an emission wavelength of 590 nm. The T90/T0 ratio was determined for each concentration of the test compounds. The percent agonist activity was determined as [(test compound−DMSO alone control)/(NECA alone control−DMSO alone control)*100]. The percent activities were plotted against compound concentration to determine EC50 using XLFit (IDBS, Alameda, Calif.). The control used for calculating rEC50 in the S1P1 CNG agonist assay was DMSO.
Assay 1 is the CNG cAMP Assay as described in Biological Example 1. Assay 2a and 2b are the Tango™ β-arrestin Recruitment Assay in HEK293 and U2OS cells, respectively, as described in Biological Example 2. Assay 3a is the hS1P1R GTPγS Binding Assay as described in Biological Example 3. Assay 3b is the GTP-Eu Binding Assay as described in Biological Example 3. EC50's were measured unless otherwise noted. […] In the table, “nt” means the Compound was not tested and “no” means the compound was tested but had no measurable activity under the assay conditions employed.

[1] = relative EC50 was measured (footnote 1), read-out: Assay 1 Relative EC50
[2] = footnote 1: Relative EC50 was measured, read-out: Assay 1 Relative EC50

Sequence of S1P1 (P21453 whole entry): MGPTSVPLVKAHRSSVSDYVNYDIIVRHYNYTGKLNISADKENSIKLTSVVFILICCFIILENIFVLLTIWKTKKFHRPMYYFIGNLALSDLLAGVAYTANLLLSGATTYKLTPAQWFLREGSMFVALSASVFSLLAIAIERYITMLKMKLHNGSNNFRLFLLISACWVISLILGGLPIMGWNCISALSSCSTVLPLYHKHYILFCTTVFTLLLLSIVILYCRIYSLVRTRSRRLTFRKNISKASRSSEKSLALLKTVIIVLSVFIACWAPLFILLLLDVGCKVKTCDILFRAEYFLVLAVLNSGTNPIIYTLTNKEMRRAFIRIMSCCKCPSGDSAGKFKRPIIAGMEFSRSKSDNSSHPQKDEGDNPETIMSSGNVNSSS

| EC50 (read-out: Assay 1 EC50) [nM] | SMILES | also measured |
| --- | --- | --- |
| ≤ 100 | FC(F)(F)c1cc(Cl)c2nc(-c3noc(-c4ccccc4Cl)n3)cn2c1 [Example 229, 8-chloro-2-[5-(2-chlorophenyl)-1,2,4-oxadiazol-3-yl]-6-(trifluoromethyl)imidazo[1,2-a]pyridine] |  |
| ≤ 100 | CC(CO)Oc1cc(Cl)c(-c2nc(-c3cn4cc(C(F)(F)F)cc(Cl)c4n3)no2)cc1F (stereo not drawn) [Example 217, 2-[(5-chloro-4-{3-[8-chloro-6-(trifluoromethyl)imidazo[1,2-a]pyridin-2-yl]-1,2,4-oxadiazol-5-yl}-2-fluorophenyl)oxy]propan-1-ol] |  |
| 100 to 500 | NCCOc1ccc(-c2nc(-c3cn4cc(C(F)(F)F)cc(Cl)c4n3)no2)c(Cl)c1 [Example 195, 2-[(3-chloro-4-{3-[8-chloro-6-(trifluoromethyl)imidazo[1,2-a]pyridin-2-yl]-1,2,4-oxadiazol-5-yl}phenyl)oxy]ethanamine] |  |
| 500 to 1000 | Fc1cccc(F)c1-c1nnc(-c2cn3cc(C(F)(F)F)cc(Cl)c3n2)o1 [Entry 66] |  |
| 100 to 500 | OCCCOc1ccc(-c2noc(-c3cn4cc(C(F)(F)F)cc(Cl)c4n3)n2)c(Cl)c1 [Example 199, 3-[(3-chloro-4-{5-[8-chloro-6-(trifluoromethyl)imidazo[1,2-a]pyridin-2-yl]-1,2,4-oxadiazol-3-yl}phenyl)oxy]propan-1-ol] |  |
| ≤ 100 | CS(=O)(=O)Nc1cc(Cl)c(-c2nc(-c3cn4cc(C(F)(F)F)cc(Cl)c4n3)no2)cc1F [Example 234, N-(5-chloro-4-{3-[8-chloro-6-(trifluoromethyl)imidazo[1,2-a]pyridin-2-yl]-1,2,4-oxadiazol-5-yl}-2-fluorophenyl)methanesulfonamide] |  |
| ≤ 100 | CC(CC(=O)O)c1ccc(-c2nnc(-c3cn4cc(C(F)(F)F)cc(Cl)c4n3)o2)c(Cl)c1 (stereo not drawn) [Example 219, 3-(3-chloro-4-{5-[8-chloro-6-(trifluoromethyl)imidazo[1,2-a]pyridin-2-yl]-1,3,4-oxadiazol-2-yl}phenyl)butanoic acid] |  |
|  | O=C(O)C1CC1c1ccc(-c2noc(-c3cn4cc(C(F)(F)F)cc(Cl)c4n3)n2)cc1 (stereo not drawn) [Entry 75] | EC50 [1]: 500 to 1000 nM |
| ≤ 100 | Fc1ccc(-c2noc(-c3cn4cc(C(F)(F)F)cc(Cl)c4n3)n2)c(Br)c1 [Example 168, 2-[3-(2-bromo-4-fluorophenyl)-1,2,4-oxadiazol-5-yl]-8-chloro-6-(trifluoromethyl)imidazo[1,2-a]pyridine] |  |
|  | Cc1cc(Br)c2nc(-c3nc(-c4ccc(NS(C)(=O)=O)cc4Cl)no3)cn2c1 [Example 125, N-{4-[5-(8-bromo-6-methylimidazo[1,2-a]pyridin-2-yl)-1,2,4-oxadiazol-3-yl]-3-chlorophenyl}methanesulfonamide] | EC50 [1]: 1000 to 5000 nM |
|  | O=C(O)c1cc2cc(-c3noc(-c4cn5cc(C(F)(F)F)cc(Cl)c5n4)n3)ccc2[nH]1 [Example 169, 5-{5-[8-chloro-6-(trifluoromethyl)imidazo[1,2-a]pyridin-2-yl]-1,2,4-oxadiazol-3-yl}-1H-indole-2-carboxylic acid] | EC50 [2]: 5000 to 10000 nM |
|  | CS(=O)(=O)Nc1ccc(-c2noc(-c3cn4cc(C#N)cc(Br)c4n3)n2)c(Cl)c1 [Example 114, N-{4-[5-(8-bromo-6-cyanoimidazo[1,2-a]pyridin-2-yl)-1,2,4-oxadiazol-3-yl]-3-chlorophenyl}methanesulfonamide] | EC50 [1]: 1000 to 5000 nM |
| ≤ 100 | CS(=O)(=O)Nc1cc(Cl)c(-c2noc(-c3cn4cc(C(F)(F)F)cc(Cl)c4n3)n2)cc1F [Example 111, N-(5-chloro-4-{5-[8-chloro-6-(trifluoromethyl)imidazo[1,2-a]pyridin-2-yl]-1,2,4-oxadiazol-3-yl}-2-fluorophenyl)methanesulfonamide] |  |
| ≤ 100 | N#Cc1cc(Cl)c2nc(-c3nc(-c4cc(F)c(CCC(=O)O)cc4Cl)no3)cn2c1 [Entry 48] |  |
|  | O=C(O)c1cc2cc(-c3noc(-c4cn5cc(C(F)(F)F)cc(Cl)c5n4)n3)ccc2o1 [Example 158, 5-{5-[8-chloro-6-(trifluoromethyl)imidazo[1,2-a]pyridin-2-yl]-1,2,4-oxadiazol-3-yl}-1-benzofuran-2-carboxylic acid] | EC50 [2]: 1000 to 5000 nM |
| 100 to 500 | O=C(O)COc1ccc(-c2noc(-c3cn4cc(C(F)(F)F)cc(Cl)c4n3)n2)c(Cl)c1 [Example 253, [(3-chloro-4-{5-[8-chloro-6-(trifluoromethyl)imidazo[1,2-a]pyridin-2-yl]-1,2,4-oxadiazol-3-yl}phenyl)oxy]acetic acid] |  |
| 100 to 500 | CC(CN)Oc1ccc(-c2noc(-c3cn4cc(C(F)(F)F)cc(Cl)c4n3)n2)c(Cl)c1 (stereo not drawn) [Example 258, 2-[(3-chloro-4-{5-[8-chloro-6-(trifluoromethyl)imidazo[1,2-a]pyridin-2-yl]-1,2,4-oxadiazol-3-yl}phenyl)oxy]propan-1-amine] |  |
| 100 to 500 | O=C(O)CCNCc1ccc(-c2noc(-c3cn4cc(C(F)(F)F)cc(Cl)c4n3)n2)cc1 [Example 123, N-[(4-{5-[8-chloro-6-(trifluoromethyl)imidazo[1,2-a]pyridin-2-yl]-1,2,4-oxadiazol-3-yl}phenyl)methyl]-beta-alanine] |  |
| 100 to 500 | NC(Cc1ccc(-c2noc(-c3cn4cc(C(F)(F)F)cc(Cl)c4n3)n2)c(Cl)c1)C(=O)O (stereo not drawn) [Entry 11] |  |
| ≤ 100 | CS(=O)(=O)c1cc(Cl)c2nc(-c3nc(-c4cc(F)c(CCC(=O)O)cc4Cl)no3)cn2c1 [Example 148, 3-(5-chloro-4-{5-[8-chloro-6-(methylsulfonyl)imidazo[1,2-a]pyridin-2-yl]-1,2,4-oxadiazol-3-yl}-2-fluorophenyl)propanoic acid] |  |
| ≤ 100 | CS(=O)(=O)Nc1ccc(-c2noc(-c3cn4cc(C(F)(F)F)cc(Cl)c4n3)n2)cc1Cl [Example 122, N-(2-chloro-4-{5-[8-chloro-6-(trifluoromethyl)imidazo[1,2-a]pyridin-2-yl]-1,2,4-oxadiazol-3-yl}phenyl)methanesulfonamide] |  |
| 500 to 1000 | O=C(O)CNCc1ccc(-c2noc(-c3cn4cc(C(F)(F)F)cc(Cl)c4n3)n2)c(Cl)c1 [Example 120, N-[(3-chloro-4-{5-[8-chloro-6-(trifluoromethyl)imidazo[1,2-a]pyridin-2-yl]-1,2,4-oxadiazol-3-yl}phenyl)methyl]glycine] |  |
| 100 to 500 | CS(=O)(=O)Nc1ccc(-c2noc(-c3cn4cc(C(F)(F)F)cc(Cl)c4n3)n2)c(F)c1 [Example 129, N-(4-{5-[8-chloro-6-(trifluoromethyl)imidazo[1,2-a]pyridin-2-yl]-1,2,4-oxadiazol-3-yl}-3-fluorophenyl)methanesulfonamide] |  |
|  | CS(=O)(=O)Nc1ccc(-c2noc(-c3cn4cc(C#N)cc(Cl)c4n3)n2)c(Cl)c1 [Example 269, N-{3-chloro-4-[5-(8-chloro-6-cyanoimidazo[1,2-a]pyridin-2-yl)-1,2,4-oxadiazol-3-yl]phenyl}methanesulfonamide] | EC50 [2]: 5000 to 10000 nM |
| ≤ 100 | FC(F)(F)c1cc(Cl)c2nc(-c3nnc(-c4ccccc4Cl)o3)cn2c1 [Entry 73] |  |
| 100 to 500 | O=C(O)CCNc1ccc(-c2noc(-c3cn4cc(C(F)(F)F)cc(Cl)c4n3)n2)c(Cl)c1 [Example 95, N-(3-chloro-4-{5-[8-chloro-6-(trifluoromethyl)imidazo[1,2-a]pyridin-2-yl]-1,2,4-oxadiazol-3-yl}phenyl)-beta-alanine] |  |
| 100 to 500 | CC(Oc1cc(Cl)c(-c2noc(-c3cn4cc(C(F)(F)F)cc(Cl)c4n3)n2)cc1F)C(=O)O (stereo not drawn) [Example 83, 2-[(5-chloro-4-{5-[8-chloro-6-(trifluoromethyl)imidazo[1,2-a]pyridin-2-yl]-1,2,4-oxadiazol-3-yl}-2-fluorophenyl)oxy]propanoic acid] |  |
|  | Cc1cc(C2CC2C(=O)O)c(F)cc1-c1nc(-c2cn3cc(C(F)(F)F)cc(Cl)c3n2)no1 (stereo not drawn) [Example 237, 2-(4-{3-[8-chloro-6-(trifluoromethyl)imidazo[1,2-a]pyridin-2-yl]-1,2,4-oxadiazol-5-yl}-2-fluoro-5-methylphenyl)cyclopropanecarboxylic acid] | EC50 [2]: 5000 to 10000 nM |
| ≤ 100 | NC(=O)C1CC1c1ccc(-c2noc(-c3cn4cc(C(F)(F)F)cc(Cl)c4n3)n2)c(Cl)c1 (stereo not drawn) [Entry 72] |  |
| 100 to 500 | Fc1ccc(-c2noc(-c3cn4cc(C(F)(F)F)cc(Br)c4n3)n2)c(Cl)c1 [Example 281, 8-bromo-2-[3-(2-chloro-4-fluorophenyl)-1,2,4-oxadiazol-5-yl]-6-(trifluoromethyl)imidazo[1,2-a]pyridine] |  |
